# Test results: ChEMBL document CHEMBL3232809, “Synthesis, antibiotic activity and structure-activity relationship study of some 3-enaminetetramic acids” (2014)
# System: Escherichia coli
# Experiment: Antimicrobial activity against Escherichia coli ATCC 25922
# Format: functional
row,Compound,MIC [µg/mL]
1,CCCCCCCCCN/C(C)=C1/C(=O)N2[C@@H](C(C)(C)C)OC[C@]2(C(=O)OC)C1=O,> 32
2,CCCCOCCCN/C(C)=C1/C(=O)N2[C@@H](C(C)(C)C)OC[C@]2(C(=O)OCC)C1=O,> 32

# System: Enterococcus faecalis
# Experiment: Antimicrobial activity against vancomycin-susceptible Enterococcus faecalis ATCC 29212
# Format: functional
row,Compound,MIC [µg/mL]
1,CCCCCCCCCN/C(C)=C1/C(=O)N2[C@@H](C(C)(C)C)OC[C@]2(C(=O)OC)C1=O,> 32
2,CCCCOCCCN/C(C)=C1/C(=O)N2[C@@H](C(C)(C)C)OC[C@]2(C(=O)OCC)C1=O,> 32

# System: Streptococcus pneumoniae
# Experiment: Antimicrobial activity against penicillin- and erythromycin-resistant Streptococcus pneumoniae
# Format: functional
row,Compound,MIC [µg/mL]
1,CCCCCCCCCN/C(C)=C1/C(=O)N2[C@@H](C(C)(C)C)OC[C@]2(C(=O)OC)C1=O,> 32
2,CCCCOCCCN/C(C)=C1/C(=O)N2[C@@H](C(C)(C)C)OC[C@]2(C(=O)OCC)C1=O,> 32

# System: Streptococcus pneumoniae
# Experiment: Antimicrobial activity against penicillin- and erythromycin-resistant Streptococcus pneumoniae in presence of 2.5% horse blood
# Format: functional
row,Compound,MIC [µg/mL]
1,CCCCCCCCCN/C(C)=C1/C(=O)N2[C@@H](C(C)(C)C)OC[C@]2(C(=O)OC)C1=O,> 32
2,CCCCOCCCN/C(C)=C1/C(=O)N2[C@@H](C(C)(C)C)OC[C@]2(C(=O)OCC)C1=O,> 32

# System: Haemophilus influenzae
# Experiment: Antimicrobial activity against Haemophilus influenzae ATCC 31517 MMSA
# Format: functional
row,Compound,MIC [µg/mL]
1,CCCCCCCCCN/C(C)=C1/C(=O)N2[C@@H](C(C)(C)C)OC[C@]2(C(=O)OC)C1=O,> 32
2,CCCCOCCCN/C(C)=C1/C(=O)N2[C@@H](C(C)(C)C)OC[C@]2(C(=O)OCC)C1=O,> 32

# System: Staphylococcus aureus
# Experiment: Antimicrobial activity against methicillin-sensitive Staphylococcus aureus ATCC 13709
# Format: functional
row,Compound,MIC [µg/mL]
1,CCCCCCCCCN/C(C)=C1/C(=O)N2[C@@H](C(C)(C)C)OC[C@]2(C(=O)OC)C1=O,> 32
2,CCCCOCCCN/C(C)=C1/C(=O)N2[C@@H](C(C)(C)C)OC[C@]2(C(=O)OCC)C1=O,> 32

# System: Enterococcus faecium
# Experiment: Antimicrobial activity against vancomycin-resistant Enterococcus faecium
# Format: functional
row,Compound,MIC [µg/mL]
1,CCCCCCCCCN/C(C)=C1/C(=O)N2[C@@H](C(C)(C)C)OC[C@]2(C(=O)OC)C1=O,> 32
2,CCCCOCCCN/C(C)=C1/C(=O)N2[C@@H](C(C)(C)C)OC[C@]2(C(=O)OCC)C1=O,> 32

# System: Pseudomonas aeruginosa
# Experiment: Antimicrobial activity against Pseudomonas aeruginosa ATCC 27853
# Format: functional
row,Compound,MIC [µg/mL]
1,CCCCCCCCCN/C(C)=C1/C(=O)N2[C@@H](C(C)(C)C)OC[C@]2(C(=O)OC)C1=O,> 32
2,CCCCOCCCN/C(C)=C1/C(=O)N2[C@@H](C(C)(C)C)OC[C@]2(C(=O)OCC)C1=O,> 32

# System: Staphylococcus aureus
# Experiment: Antimicrobial activity against Staphylococcus aureus Oxford
# Format: functional
row,Compound,MIC [µg/mL]
1,CCCCCCCCCN/C(C)=C1/C(=O)N2[C@@H](C(C)(C)C)OC[C@]2(C(=O)OC)C1=O,> 32
2,CCCCOCCCN/C(C)=C1/C(=O)N2[C@@H](C(C)(C)C)OC[C@]2(C(=O)OCC)C1=O,> 32

# System: Haemophilus influenzae
# Experiment: Antimicrobial activity against LS2 Efflux knock-out Haemophilus influenzae
# Format: functional
row,Compound,MIC [µg/mL]
1,CCCCCCCCCN/C(C)=C1/C(=O)N2[C@@H](C(C)(C)C)OC[C@]2(C(=O)OC)C1=O,> 32
2,CCCCOCCCN/C(C)=C1/C(=O)N2[C@@H](C(C)(C)C)OC[C@]2(C(=O)OCC)C1=O,> 32

# System: Staphylococcus aureus
# Experiment: Antimicrobial activity against methicillin-resistant Staphylococcus aureus
# Format: functional
row,Compound,MIC [µg/mL]
1,CCCCCCCCCN/C(C)=C1/C(=O)N2[C@@H](C(C)(C)C)OC[C@]2(C(=O)OC)C1=O,> 32
2,CCCCOCCCN/C(C)=C1/C(=O)N2[C@@H](C(C)(C)C)OC[C@]2(C(=O)OCC)C1=O,> 32

# System: Escherichia coli
# Experiment: Antimicrobial activity against Escherichia coli 50
# Format: functional
row,Compound,MIC [µg/mL]
1,CCCCCCCCCN/C(C)=C1/C(=O)N2[C@@H](C(C)(C)C)OC[C@]2(C(=O)OC)C1=O,> 32
2,CCCCOCCCN/C(C)=C1/C(=O)N2[C@@H](C(C)(C)C)OC[C@]2(C(=O)OCC)C1=O,> 32

# System: Streptococcus pneumoniae
# Experiment: Antimicrobial activity against erythromycin-susceptible Streptococcus pneumoniae ATCC 49619
# Format: functional
row,Compound,MIC [µg/mL]
1,CCCCCCCCCN/C(C)=C1/C(=O)N2[C@@H](C(C)(C)C)OC[C@]2(C(=O)OC)C1=O,> 32
2,CCCCOCCCN/C(C)=C1/C(=O)N2[C@@H](C(C)(C)C)OC[C@]2(C(=O)OCC)C1=O,> 32

# System: Escherichia coli
# Experiment: Antimicrobial activity against Escherichia coli 49
# Format: functional
row,Compound,MIC [µg/mL]
1,CCCCCCCCCN/C(C)=C1/C(=O)N2[C@@H](C(C)(C)C)OC[C@]2(C(=O)OC)C1=O,> 32
2,CCCCOCCCN/C(C)=C1/C(=O)N2[C@@H](C(C)(C)C)OC[C@]2(C(=O)OCC)C1=O,> 32

# System: Staphylococcus aureus
# Experiment: Antimicrobial activity against vancomycin-susceptible Staphylococcus aureus ATCC 25923
# Format: functional
row,Compound,MIC [µg/mL]
1,CCCCCCCCCN/C(C)=C1/C(=O)N2[C@@H](C(C)(C)C)OC[C@]2(C(=O)OC)C1=O,> 32
2,CCCCOCCCN/C(C)=C1/C(=O)N2[C@@H](C(C)(C)C)OC[C@]2(C(=O)OCC)C1=O,> 32
